Melting point, IC50 and approximate analgesic potency data for 27 compounds are collected here from patent US6645977B1 (priority 1997, dated 2003).

Values joined by “and” are separate entries in the source; they are usually repeats but may differ in a detail not shown here. Equal entries are not always repeated. Structures can show the parent of a compound that is named as a salt. Where two headings read alike, the source gives them in different places.

Data set [1] addresses nAChR labelled by 3H-α-bungarotoxin (α7 subunits) (Rattus norvegicus, UniProt Q05941). As to the kind of experiment: biochemical. It counts as binding.
Data set [2] addresses nAChRs comprised of α4 and β2 subunits (labelled by 3H-cytisine) (Rattus norvegicus, UniProt P09483+P12390). As to the kind of experiment: In vitro inhibition of 3H-cytisine binding. The protocol: In vitro inhibition of ^3H-cytisine binding
The predominant subtype with high affinity for nicotine is comprised of α4 and β2 subunits. nAChRs of the latter type can selectively be labelled by the nicotine modulator ^3H-cytisine.
Tissue Preparation: Preparations are performed at 0-4° C. unless otherwise indicated. […] The homogenate is centrifuged at 27,000×g for 10 min. The supernatant is discarded and the pellet is resuspended in fresh buffer and centrifuged a second time. The final pellet is resuspended in fresh buffer (35 ml per g of original tissue) and used for binding assays.
Assay: Aliquots of 500 μl homogenate are added to 25 μl of test solution and 25 μl of ^3H-cytisine (1 nM, final concentration), mixed and incubated for 90 min at 2° C. Non-specific binding is determined using (−)-nicotine (100 μM, final concentration). After incubation the samples are added 5 ml of ice-cold buffer and poured directly onto Whatman GF/C glass fibre filters under suction and immediately washed with 2×5 ml ice-cold buffer. The amount of radioactivity on the filters is determined by conventional liquid scintillation counting. Specific binding is total binding minus non-specific binding.

For data set [3] the following is noted: relative to morphine; cited from earlier work.
Setting [4] is: read-out: 3H-α-bungarotoxin IC50.
Where [5] appears, read: 3H-cytisine IC50, rat cerebral cortex homogenate, 1 nM 3H-cytisine, 90 min at 2° C.
The mark [6] stands for this setting: rat cerebral cortex homogenate, 1 nM 3H-cytisine, 90 min at 2° C., read-out: 3H-cytisine IC50.

nAChRs comprised of α4 and β2 subunits (labelled by 3H-cytisine), sequence (P09483 31-630): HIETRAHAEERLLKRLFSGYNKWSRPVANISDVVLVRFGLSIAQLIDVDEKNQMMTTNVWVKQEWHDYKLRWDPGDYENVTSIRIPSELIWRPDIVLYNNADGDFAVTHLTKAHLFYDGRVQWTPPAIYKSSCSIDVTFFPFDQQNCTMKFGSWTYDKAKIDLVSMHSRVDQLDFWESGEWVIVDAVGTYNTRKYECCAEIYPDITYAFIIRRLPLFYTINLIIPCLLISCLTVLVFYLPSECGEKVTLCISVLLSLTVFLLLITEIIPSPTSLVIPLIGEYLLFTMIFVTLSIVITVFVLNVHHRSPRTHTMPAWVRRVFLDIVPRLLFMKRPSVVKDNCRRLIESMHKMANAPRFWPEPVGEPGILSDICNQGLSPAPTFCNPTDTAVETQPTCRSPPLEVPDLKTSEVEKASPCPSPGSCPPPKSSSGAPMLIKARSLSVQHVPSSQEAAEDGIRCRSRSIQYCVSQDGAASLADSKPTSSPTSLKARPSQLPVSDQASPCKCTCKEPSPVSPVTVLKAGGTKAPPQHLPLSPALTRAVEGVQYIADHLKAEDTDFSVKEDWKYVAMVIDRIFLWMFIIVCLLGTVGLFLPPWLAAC
nAChRs comprised of α4 and β2 subunits (labelled by 3H-cytisine), sequence (P12390 25-500): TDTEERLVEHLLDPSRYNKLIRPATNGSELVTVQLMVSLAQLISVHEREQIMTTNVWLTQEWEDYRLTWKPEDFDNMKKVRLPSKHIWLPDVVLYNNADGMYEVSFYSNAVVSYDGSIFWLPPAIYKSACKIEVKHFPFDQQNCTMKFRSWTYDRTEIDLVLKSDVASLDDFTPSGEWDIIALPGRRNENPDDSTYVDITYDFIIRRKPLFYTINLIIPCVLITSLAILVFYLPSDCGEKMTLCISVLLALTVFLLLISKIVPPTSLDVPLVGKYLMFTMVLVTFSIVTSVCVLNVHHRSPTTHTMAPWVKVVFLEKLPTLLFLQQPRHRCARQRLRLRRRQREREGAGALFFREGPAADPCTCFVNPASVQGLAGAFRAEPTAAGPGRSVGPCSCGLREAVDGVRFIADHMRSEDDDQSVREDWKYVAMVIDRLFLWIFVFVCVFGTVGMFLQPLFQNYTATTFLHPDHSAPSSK
nAChR labelled by 3H-α-bungarotoxin (α7 subunits), sequence (Q05941 23-502): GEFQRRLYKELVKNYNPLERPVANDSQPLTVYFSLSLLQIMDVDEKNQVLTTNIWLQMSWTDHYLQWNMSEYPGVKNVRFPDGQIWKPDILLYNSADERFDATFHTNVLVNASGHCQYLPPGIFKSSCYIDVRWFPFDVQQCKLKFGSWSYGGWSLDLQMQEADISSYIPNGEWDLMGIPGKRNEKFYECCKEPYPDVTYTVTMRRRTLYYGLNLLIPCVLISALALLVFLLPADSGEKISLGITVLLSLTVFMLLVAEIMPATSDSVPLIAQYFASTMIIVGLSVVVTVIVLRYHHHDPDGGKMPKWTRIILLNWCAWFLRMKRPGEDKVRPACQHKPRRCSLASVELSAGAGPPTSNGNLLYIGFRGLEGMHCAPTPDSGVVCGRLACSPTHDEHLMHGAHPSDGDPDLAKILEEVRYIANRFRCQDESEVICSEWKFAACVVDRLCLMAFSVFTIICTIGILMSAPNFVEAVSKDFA

The compound `CN1C2C=C(c3ccc[se]3)CC1CC2` (racemic) registered a melting point of 176.8 to 178.3 °C.
Same read-out and setting: next, `CN1C2C=C(c3cc4ccccc4o3)CC1CC2.O=C(O)/C=C/C(=O)O` (racemic): 188.3 to 190.9 °C and 188.5 to 191.2 °C; `CN1C2C=C(c3cccs3)CC1CC2.O=C(O)/C=C/C(=O)O` (racemic): 141.5 to 143.5 °C.
Still for that read-out and setting: next, `CC(=O)C1=CC2CCC(C1)N2C.O=C(O)/C=C/C(=O)O` (racemic): 148.5 to 150 °C; `CN1C2C=C(c3csc4ccccc34)CC1CC2.O=C(O)/C=C/C(=O)O` (racemic): 146.6 to 149.5 °C; `CN1C2C=C(c3nc4ccccc4s3)CC1CC2.O=C(O)/C=C/C(=O)O` (racemic): 195 to 196.8 °C.
Same read-out and setting: to `CN1C2C=C(c3sccc3-c3ccoc3)CC1CC2.O=C(O)/C=C/C(=O)O` (racemic) belongs 187 to 189 °C; to `CN1C2C=C(c3nccs3)CC1CC2.O=C(O)/C=C/C(=O)O` (racemic), 196.3 to 198.5 °C.
As to `CN1C2C=C(c3ccsc3)CC1CC2.Cl` (racemic), the melting point lay in the range of 117 to 118.5 °C.
The compound `C1=C(c2cc3ccccc3o2)CC2CCC1N2` (racemic) (as salt: fumaric acid salt) [Compound 1e, (±)-3-(2-Benzofuryl)-8-H-8-azabicyclo[3.2.1]oct-2-ene Fumaric Acid Salt] returned a melting point of 201 to 204 °C.
The same measure, in the same setting: next, `CN1C2C=C(c3oc4ccccc4c3Br)CC1CC2` (racemic) (as salt: fumaric acid salt) [Compound 2f, (±)-3-[2-(3-Bromobenzofuryl)]-8-methyl-8-azabicyclo[3.2.1]oct-2-ene Fumaric Acid Salt]: 161.4 to 163.3 °C; `CN1C2C=C(c3ccc(Cl)nc3)CC1CC2` (racemic) (as salt: fumaric acid salt) [Compound 5b, (±)-8-Methyl-3-[3-(6-chloro)pyridyl]-8-azabicyclo[3.2.1]oct-2-ene Fumaric Acid Salt]: 140 to 142 °C.
Compound `C1=C(c2cccnc2)CC2CCC1N2Cc1ccccc1.O=C(O)/C=C/C(=O)O` (racemic) [Compound 1a, (±)-8-Benzyl-3-(3-pyridyl)-8-azabicyclo[3.2.1]oct-2-ene Fumaric Acid Salt] came in with a melting point of 142 to 146 °C. Also, the IC50 in data set [1] (setting [4]) was determined as 500 nM. This compound had an IC50 in data set [2] (setting [5]) of 23 nM.
For `CN1C2C=C(c3cc4ccccc4o3)CC1CC2` (racemic) [Compound 1d, (±)-3-(2-Benzofuryl)-8-methyl-8-azabicyclo[3.2.1]oct-2-ene Fumaric Acid Salt], the IC50 came to 170 nM in data set [1] (setting [4]) and 120000 nM in data set [2] (setting [5]).
Regarding `C1=C(c2cc3ccccc3o2)CC2CCC1N2` (racemic) [Compound 1e, (±)-3-(2-Benzofuryl)-8-H-8-azabicyclo[3.2.1]oct-2-ene Fumaric Acid Salt], the concentration for half-maximal inhibition (IC50) in data set [1] is 800 nM; in data set [2] (setting [6]), > 10000 nM.
In the case of `CN1C2C=C(c3sccc3Br)CC1CC2` (racemic) [Compound 1f, (±)-3-[2-(3-bromothienyl)]-8-methyl-8-azabicyclo[3.2.1]oct-2-ene Fumaric Acid Salt], the half-inhibitory concentration (IC50) stood at 82 nM in data set [1] (setting [4]) and 2200 nM in data set [2] (setting [6]).
For the compound `CN1C2C=C(c3cccnc3)CC1CC2` (racemic) [Compound 2a, (±)-8-Methyl-3-(3-pyridyl)-8-azabicyclo[3.2.1]oct-2-ene Fumaric Acid Salt], the results for the half-inhibitory concentration (IC50) in data set [1] and in data set [2] were 550 nM and 22 nM, respectively.
`CN1C2C=C(c3cc4ccccc4s3)CC1CC2` (racemic) [Compound 2c, (±)-3-(2-Benzothienyl)-8-methyl-8-azabicyclo[3.2.1]oct-2ene] yielded a melting point of 81 to 83.6 °C. In addition, the concentration for half-maximal inhibition (IC50) in data set [1] (setting [4]) turned out to be 100 nM. In data set [2] (setting [5]), this compound yielded an IC50 of 63800 nM.
The matching figures for `CN1C2C=C(c3cc4ccccc4s3)CC1CC2.Cl` (racemic) [Compound 2d, (±)-3-(2-Benzothienyl)-8-methyl-8-azabicyclo[3.2.1]oct-2-ene Hydrochloride]: > 250 °C, 67 nM and 110000 nM.
For `CN1C2C=C(c3oc4ccccc4c3Br)CC1CC2` (racemic) [Compound 2f, (±)-3-[2-(3-Bromobenzofuryl)]-8-methyl-8-azabicyclo[3.2.1]oct-2-ene Fumaric Acid Salt], the IC50 in data set [1] (setting [4]) was determined as 1300 nM; in data set [2] (setting [6]) it was 30000 nM.
In turn, `CN1C2C=C(c3cnc4ccccc4c3)CC1CC2.O=C(O)/C=C/C(=O)O` (racemic) [Compound 3a, (±)-8-Methyl-3-(3-quinolinyl)-8-azabicyclo[3.2.1]oct-2-ene Fumaric Acid Salt] displayed a melting point of 140.8 to 143.8 °C. Moreover, the IC50 in data set [1] (setting [4]) came to 1440 nM. This compound also showed a half-inhibitory concentration (IC50) in data set [2] (setting [5]) of 1300 nM.
Turning to `CC(=O)Nc1cccc(C2=CC3CCC(C2)N3C)c1.O=C(O)/C=C/C(=O)O` (racemic) [Compound 3c, (±)-3-(3-Acetamidophenyl)-8-methyl-8-azabicyclo[3.2.1]oct-2-ene Fumaric Acid Salt], the melting point was in the range of 195.3 to 196.9 °C. In data set [1], the IC50 is 640 nM. Also, the concentration for half-maximal inhibition (IC50) in data set [2] (setting [6]) worked out at 17000 nM.
Consider `CCN1C2C=C(c3cc4ccccc4o3)CC1CC2.O=C(O)/C=C/C(=O)O` (racemic) [Compound 3e, (±)-3-(2-Benzofuryl)-8ethyl-8-azabicyclo[3.2.1]oct-2-ene Fumaric Acid Salt], for which the melting point lay in the range of 197 to 203 °C. In data set [1] (setting [4]), the IC50 turned out to be 510 nM. Moreover, in data set [2] (setting [5]), the half-maximal inhibitory concentration (IC50) is > 10000 nM.
On the same counts, the results for `CN1C2C=C(c3coc4ccccc34)CC1CC2.O=C(O)/C=C/C(=O)O` (racemic) [Compound 4a, (±)-3-(3-Benzofuryl)-8-methyl-8-azabicyclo[3.2.1]oct-2-ene Fumaric Acid Salt] are 140.9 to 142.8 °C, 3500 nM and 2700 nM.
In turn, `CN1C2C=C(c3cccc(N)c3)CC1CC2.O=C(O)/C=C/C(=O)O` (racemic) [Compound 4c, (±)-3-(3-Aminophenyl) 8-methyl-8-azabicyclo[3.2.1]oct-2-ene Fumaric Acid Salt] gave a melting point of 195.3 to 196.9 °C. Besides, in data set [1] (setting [4]), the half-maximal inhibitory concentration (IC50) came out at 440 nM. Besides, the IC50 in data set [2] was found to be 30 nM.
With `CN1C2C=C(c3ccc(Cl)nc3)CC1CC2` (racemic) [Compound 5b, (±)-8-Methyl-3-[3-(6-chloro)pyridyl]-8-azabicyclo[3.2.1]oct-2-ene Fumaric Acid Salt], the half-maximal inhibitory concentration (IC50) in data set [1] turned out to be 1900 nM; in data set [2] (setting [6]) it was 20 nM.
With `Clc1ccc(C2CC3CCC2N3)cn1` (stereo not shown) [Epibatidine], the approximate analgesic potency in data set [3] is reported as ~500 times that of morphine.

Usually melting point stands for the temperature of the solid-liquid transition. Usually IC50 stands for the concentration at which inhibition is half-maximal.
